Results from patent US7351728B2, “Oxazolyl-aryloxyacetic acid derivatives and their use as PPAR agonists” (Eli Lilly and Company, priority 2003, dated 2008).

Legend:
HuapoAI transgenic mice = assay: Evaluation of triglyceride and cholesterol level in HuapoAI transgenic mice; format: in vivo; details: Mus musculus, 168 h, 30 mg/kg daily oral gavage 7 days
Protocol: Five to six week old male mice, transgenic for human apoAI [C57Bl/6-tgn(apoa1)lrub, Jackson Laboratory, Bar Harbor, Me.] were housed five per cage (10″×20″×8″ with aspen chip bedding) with food (Purina 5001) and water available at all times. After an acclimation period of 2 weeks, animals were individually identified by ear notches, weighed, and assigned to groups based on body weight. Beginning the following morning, mice were dosed daily by oral gavage for 7 days using a 20 gauge, 1½″ curved disposable feeding needle (Popper & Sons). Treatments were test compounds (30 mg/kg), a positive control (fenofibrate, 100 mg/kg) or vehicle [1% carboxymethylcellulose (w/v)/0.25% Tween80 (w/v); 0.2 ml/mouse]. Prior to termination on day 7, mice were weighed and dosed. Three hours after dosing, animals were anesthetized by inhalation of isoflurane (2-4%; Abbott Laboratories, Chicago, Ill.) and blood obtained via cardiac puncture (0.7-1.0 ml). Whole blood was transferred to serum separator tubes (Vacutainer SST), chilled on ice, and permitted to clot. Serum was obtained after centrifugation at 4° C. and frozen until analysis for triglycerides, total cholesterol, compound levels, and serum lipoprotein profile by fast protein liquid chromatography (FPLC) coupled to an inline detection system. After sacrifice by cervical dislocation, the liver, heart and epididymal fat pads were excised and weighed.
The animals dosed with vehicle had average triglycerides values of 60-80 mg/dl, which were reduced by the positive control fenofibrate (33-58 mg/dl with a mean reduction of 37%). The animals dosed with vehicle had average total serum cholesterol values of 140-180 mg/dl, which were increased by fenofibrate (190-280 mg/dl, with a mean elevation of 41%). […] Fenofibrate increased the amount of HDLc (68-96 v-sec with a mean percent increase of 48%).
Glucose was measured colorimetrically using commercially purchased reagents (Sigma #315-500). According to the manufacturers, the procedures were modified from published work (McGowan, M. W., Artiss, J. D., Strandbergh, D. R. & Zak, B. Clin Chem, 20:470-5 (1974) and Keston, A. Specific colorimetric enzymatic analytical reagents for glucose. Abstract of papers 129th Meeting ACS, 31C (1956).); and depend on the release of a mole of hydrogen peroxide for each mole of analyte, coupled with a color reaction first described by Trinder (Trinder, P. Determination of glucose in blood using glucose oxidase with an alternative oxygen acceptor. Ann Clin Biochem, 6:24 (1969)). The absorbance of the dye produced is linearly related to the analyte in the sample. The assays were further modified in our laboratory for use in a 96 well format. Standards (Sigma #339-11, Sigma #16-11, and Sigma #CC0534 for glucose triglycerides and total cholesterol, respectively), quality control plasma (Sigma # A2034), and samples (2 or 5 μl/well) were measured in duplicate using 200 μl of reagent. An additional aliquot of sample, pipetted to a third well and diluted in 200 μl water, provided a blank for each specimen. Plates were incubated at room temperature (18, 15, and 10 minutes for glucose, triglycerides and total cholesterol, respectively) on a plate shaker (DPC Micormix 5) and absorbance read at 500 nm (glucose and total cholesterol) or 540 nm (triglycerides) on a plate reader (Wallac Victor 1420). Sample absorbances were compared to a standard curve (100-800, 10-500, and 100-400 mg/dl for glucose, triglycerides and total cholesterol, respectively). Values for the quality control sample were always within the expected range and the coefficient of variation for samples was below 10%. All samples from an experiment were assayed at the same time to minimize inter-assay variability.
Serum lipoproteins were separated and cholesterol quantitated with an in-line detection system. Sample was applied to a Superose® 6 HR 10/30 size exclusion column (Amersham Pharmacia Biotech) and eluted with phosphate buffered saline-EDTA at 0.5 ml/min. […]

| SMILES | melting point [°C] | change in vivo at 30 mg/kg (HuapoAI transgenic mice; percent increase in FPLC HDLc area under the curve) [%] | inhibition in vivo at 30 mg/kg (HuapoAI transgenic mice; serum, male human apoAI transgenic mice, read-out: % Triglyceride Reduction) [%] |
| --- | --- | --- | --- |
| C#Cc1ccc(-c2nc(CCOc3ccc(OC(C)(C)C(=O)O)cc3)c(C)o2)cc1 [Example 11, 2-(4-{2-[2-(4-Ethynylphenyl)-5-methyloxazol-4-yl]ethoxy}phenoxy)-2-methylpropionic acid] | 137 to 139 |  |  |
| Cc1oc(-c2ccc(C(N)=O)cc2)nc1CCOc1ccc(OC(C)(C)C(=O)O)cc1 [Example 14, 2-(4-{2-[2-(4-Carbamoylphenyl)-5-methyloxazol-4-yl]ethoxy}phenoxy)-2-methylpropionic acid] | 126 to 127 |  |  |
| Cc1cc(OCCc2nc(-c3ccccc3)oc2C)ccc1OCC(=O)O [Example 25, {2-Methyl-4-[2-(5-methyl-2-phenyloxazol-4-yl)ethoxy]phenoxy}acetic acid] | 133 |  |  |

Further lines, with some results ahead:

| melting point [°C] | SMILES | change in vivo at 30 mg/kg (HuapoAI transgenic mice; percent increase in FPLC HDLc area under the curve) [%] | inhibition in vivo at 30 mg/kg (HuapoAI transgenic mice; serum, male human apoAI transgenic mice, read-out: % Triglyceride Reduction) [%] |
| --- | --- | --- | --- |
| 199 to 200 | CC(C)(Oc1ccc(OCCc2coc(-c3ccccc3)n2)cc1)C(=O)[O-].[Na+] [Example 3, Sodium 2-methyl-2-{4-[2-(2-phenyloxazol-4-yl)ethoxy]phenoxy}propionate] | 63 | 66 |
| 137 to 139 | C=Cc1cccc(-c2nc(CCOc3ccc(OC(C)(C)C(=O)O)cc3)c(C)o2)c1 [Example 10A, 2-Methyl-2-(4-{2-[5-methyl-2-(3-vinylphenyl)oxazol-4-yl]ethoxy}phenoxy)propionic acid] |  |  |
| 140 to 141 | Cc1oc(-c2ccccc2)nc1CCOc1cccc(OC(C)(C)C(=O)O)c1 [Example 23, 2-methyl-2-{3-[2-(5-methyl-2-phenyloxazol-4-yl)ethoxy]phenoxy}propionic acid] |  |  |
| 163.5 | Cc1sc(-c2ccccc2)nc1CCOc1ccc(OC(C)(C)C(=O)O)cc1 [Example 35, 2-Methyl-2-{4-[2-(5-methyl-2-phenyl-thiazol-4-yl)-ethoxy]phenoxy}-2-methyl-propionic acid] |  |  |
